From patent publication US9695155B2, “Herbicidal substituted pyrimidinyloxy benzene compounds” (E. I. DU PONT DE NEMOURS AND COMPANY, priority 2013, dated 2017)

Tests used:
wheat [1] = test: Test A preemergence; format: in vivo, Triticum aestivum
Method in brief: (§1)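 Compounds in non-phytotoxic solvent with surfactant applied as soil spray preemergence, or postemergence to plants 2-10 cm at one- to two-leaf stage, in loam/sand. After approximately 10 days in greenhouse, injury rated visually versus untreated controls, 0 (no effect) to 100 (complete control).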

morningglory [2] = test: Test A postemergence; format: in vivo, Ipomoea spp.
Method in brief: as §1

giant foxtail [3] = test: Test A postemergence; format: in vivo, Setaria faberii
Method in brief: as §1

giant foxtail [4] = test: Test A preemergence; format: in vivo, Setaria faberii
Method in brief: as §1

barnyardgrass [5] = test: Test A postemergence; format: in vivo, Echinochloa crus-galli
Method in brief: as §1

large (Lg) crabgrass [6] = test: Test A preemergence; format: in vivo, Digitaria sanguinalis
Method in brief: as §1

corn [7] = test: Test A postemergence; format: in vivo, Zea mays
Method in brief: as §1

barnyardgrass [8] = test: Test A preemergence; format: in vivo, Echinochloa crus-galli
Method in brief: as §1

sedge, umbrella = test: Test B flooded paddy test; format: in vivo, Cyperus difformis; conditions: Flood, 250 g ai/ha; 0 to 100 scale where 0 is no effect and 100 is complete control
Method in brief: (§2)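 Post-emergence paddy-water application at the 2-leaf stage, with 3 cm flood kept for the whole test. Response was judged visually relative to controls after 13 to 15 greenhouse days, 0 indicating no effect and 100 complete control.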

wheat [9] = test: Test A postemergence; format: in vivo, Triticum aestivum
Method in brief: as §1

large (Lg) crabgrass [10] = test: Test A postemergence; format: in vivo, Digitaria sanguinalis
Method in brief: as §1

pigweed [11] = test: Test A preemergence; format: in vivo, Amaranthus retroflexus
Method in brief: as §1

Heteranthera limosa = test: Test B flooded paddy test; format: in vivo; conditions: Flood, 250 g ai/ha; 0 to 100 scale where 0 is no effect and 100 is complete control
Method in brief: as §2

rice = test: Test B flooded paddy test; format: in vivo, Oryza sativa; conditions: Flood, 250 g ai/ha; 0 to 100 scale where 0 is no effect and 100 is complete control
Method in brief: as §2

corn [12] = test: Test A preemergence; format: in vivo, Zea mays
Method in brief: as §1

velvetleaf [13] = test: Test A preemergence; format: in vivo, Abutilon theophrasti
Method in brief: as §1

morningglory [14] = test: Test A preemergence; format: in vivo, Ipomoea spp.
Method in brief: as §1

pigweed [15] = test: Test A postemergence; format: in vivo, Amaranthus retroflexus
Method in brief: as §1

barnyardgrass [16] = test: Test B flooded paddy test; format: in vivo, Echinochloa crus-galli; conditions: Flood, 250 g ai/ha; 0 to 100 scale where 0 is no effect and 100 is complete control
Method in brief: as §2

velvetleaf [17] = test: Test A postemergence; format: in vivo, Abutilon theophrasti
Method in brief: as §1

[18] = 125 g ai/ha, 0 to 100 scale where 0 is no effect and 100 is complete control
[19] = 500 g ai/ha, 0 to 100 scale, 0 no effect, 100 complete control, approx. 10 days
[20] = 500 g ai/ha, 0 to 100 scale, 0 no effect, 100 complete control
[21] = 500 g ai/ha, 0 to 100 scale where 0 is no effect and 100 is complete control
[22] = 125 g ai/ha, 0 to 100 scale, 0 no effect, 100 complete control

## Cc1cnc(Oc2ccccc2-n2cc(Cl)cn2)nc1 [Compound 15]
Wheat [1]; [18]
  Wheat plant response rating: 0
Wheat [1]; [19]
  Wheat plant response rating: 0
Morningglory [2]; [18]
  Plant response rating, Morningglory: 10
Morningglory [2]; [20]
  Plant response rating, Morningglory: 20
Giant foxtail [3]; [18]
  Plant response rating, Foxtail, Giant: 10
Giant foxtail [3]; [20]
  Plant response rating, Foxtail, Giant: 70
Giant foxtail [4]; [18]
  Foxtail, Giant plant response rating: 30
Giant foxtail [4]; [19]
  Foxtail, Giant plant response rating: 100
Barnyardgrass [5]; [18]
  Plant response rating, Barnyardgrass: 0
Barnyardgrass [5]; [20]
  Plant response rating, Barnyardgrass: 60
Large (Lg) crabgrass [6]; [18]
  Crabgrass, Large plant response rating: 40
Large (Lg) crabgrass [6]; [19]
  Crabgrass, Large plant response rating: 100
Corn [7]; [18]
  Plant response rating, Corn: 0
Corn [7]; [20]
  Plant response rating, Corn: 20
Barnyardgrass [8]; [18]
  Barnyardgrass plant response rating: 20
Barnyardgrass [8]; [19]
  Barnyardgrass plant response rating: 100
sedge, umbrella
  Plant response rating, Sedge, Umbrella: 85
Wheat [9]; [18]
  Plant response rating, Wheat: 0
Wheat [9]; [20]
  Plant response rating, Wheat: 10
Large (Lg) crabgrass [10]; [18]
  Plant response rating, Crabgrass, Large: 10
Large (Lg) crabgrass [10]; [20]
  Plant response rating, Crabgrass, Large: 60
Pigweed [11]; [18]
  Pigweed plant response rating: 90
Pigweed [11]; [19]
  Pigweed plant response rating: 100
Heteranthera limosa
  Plant response rating, Ducksalad: 75
rice
  Plant response rating, Rice: 20
Corn [12]; [18]
  Corn plant response rating: 0
Corn [12]; [19]
  Corn plant response rating: 0
Velvetleaf [13]; [18]
  Velvetleaf plant response rating: 60
Velvetleaf [13]; [19]
  Velvetleaf plant response rating: 100
Morningglory [14]; [18]
  Morningglory plant response rating: 0
Morningglory [14]; [19]
  Morningglory plant response rating: 0
Pigweed [15]; [18]
  Plant response rating, Pigweed: 70
Pigweed [15]; [20]
  Plant response rating, Pigweed: 100
Barnyardgrass [16]
  Plant response rating, Barnyardgrass: 20
Velvetleaf [17]; [18]
  Plant response rating, Velvetleaf: 90
Velvetleaf [17]; [20]
  Plant response rating, Velvetleaf: 100

## COc1cnc(Oc2ccccc2-n2cccn2)nc1 [Compound 227]
Wheat [1]; 125 g ai/ha
  Wheat plant response rating (0 to 100 scale): 0
Wheat [1]; [21]
  Wheat plant response rating: 0
Morningglory [2]; [18]
  Morningglory plant response rating: 0
Morningglory [2]; [21]
  Plant response rating, Morningglory: 10
Giant foxtail [3]; [18]
  Foxtail, Giant plant response rating: 0
Giant foxtail [3]; [21]
  Plant response rating, Foxtail, Giant: 10
Giant foxtail [4]; 125 g ai/ha
  Foxtail, Giant plant response rating (0 to 100 scale): 0
Giant foxtail [4]; [21]
  Foxtail, Giant plant response rating: 10
Barnyardgrass [5]; [18]
  Barnyardgrass plant response rating: 0
Barnyardgrass [5]; [21]
  Plant response rating, Barnyardgrass: 0
Large (Lg) crabgrass [6]; 125 g ai/ha
  Crabgrass, Large plant response rating (0 to 100 scale): 0
Large (Lg) crabgrass [6]; [21]
  Crabgrass, Large plant response rating: 10
Corn [7]; [18]
  Corn plant response rating: 0
Corn [7]; [21]
  Plant response rating, Corn: 0
Barnyardgrass [8]; 125 g ai/ha
  Barnyardgrass plant response rating (0 to 100 scale, 0 is no effect, 100 is complete control): 0
Barnyardgrass [8]; [21]
  Barnyardgrass plant response rating: 0
sedge, umbrella
  Plant response rating, Sedge, Umbrella: 0
Wheat [9]; [18]
  Wheat plant response rating: 0
Wheat [9]; [21]
  Plant response rating, Wheat: 0
Large (Lg) crabgrass [10]; [18]
  Crabgrass, Large plant response rating: 0
Large (Lg) crabgrass [10]; [21]
  Plant response rating, Crabgrass, Large: 10
Pigweed [11]; 125 g ai/ha
  Pigweed plant response rating (0 to 100 scale): 10
Pigweed [11]; [21]
  Pigweed plant response rating: 60
Heteranthera limosa
  Plant response rating, Ducksalad: 0
rice
  Plant response rating, Rice: 0
Corn [12]; 125 g ai/ha
  Corn plant response rating (0 to 100 scale): 0
Corn [12]; [21]
  Corn plant response rating: 0
Velvetleaf [13]; 125 g ai/ha
  Velvetleaf plant response rating (0 to 100 scale): 10
Velvetleaf [13]; [21]
  Velvetleaf plant response rating: 20
Morningglory [14]; 125 g ai/ha
  Morningglory plant response rating (0 to 100 scale): 0
Morningglory [14]; [21]
  Morningglory plant response rating: 0
Pigweed [15]; [18]
  Pigweed plant response rating: 10
Pigweed [15]; [21]
  Plant response rating, Pigweed: 60
Barnyardgrass [16]
  Plant response rating, Barnyardgrass: 0
Velvetleaf [17]; [18]
  Velvetleaf plant response rating: 50
Velvetleaf [17]; [21]
  Plant response rating, Velvetleaf: 90

## NN=Cc1cccc(Oc2ncc(Cl)cn2)c1-n1cc(Br)cn1 [Compound 288]
Wheat [1]; 125 g ai/ha
  Wheat plant response rating (0 to 100 scale): 0
Wheat [1]; [21]
  Wheat plant response rating: 0
Morningglory [2]; [22]
  Plant response rating, Morningglory: 20
Morningglory [2]; [21]
  Plant response rating, Morningglory: 40
Giant foxtail [3]; [22]
  Plant response rating, Foxtail, Giant: 10
Giant foxtail [3]; [21]
  Plant response rating, Foxtail, Giant: 20
Giant foxtail [4]; 125 g ai/ha
  Foxtail, Giant plant response rating (0 to 100 scale): 0
Giant foxtail [4]; [21]
  Foxtail, Giant plant response rating: 0
Barnyardgrass [5]; [22]
  Plant response rating, Barnyardgrass: 0
Barnyardgrass [5]; [21]
  Plant response rating, Barnyardgrass: 10
Large (Lg) crabgrass [6]; 125 g ai/ha
  Crabgrass, Large plant response rating (0 to 100 scale): 0
Large (Lg) crabgrass [6]; [21]
  Crabgrass, Large plant response rating: 10
Corn [7]; [22]
  Plant response rating, Corn: 0
Corn [7]; [21]
  Plant response rating, Corn: 10
Barnyardgrass [8]; 125 g ai/ha
  Barnyardgrass plant response rating (0 to 100 scale, 0 is no effect, 100 is complete control): 0
Barnyardgrass [8]; [21]
  Barnyardgrass plant response rating: 10
sedge, umbrella
  Plant response rating, Sedge, Umbrella: 0
Wheat [9]; [22]
  Plant response rating, Wheat: 0
Wheat [9]; [21]
  Plant response rating, Wheat: 0
Large (Lg) crabgrass [10]; [22]
  Plant response rating, Crabgrass, Large: 10
Large (Lg) crabgrass [10]; [21]
  Plant response rating, Crabgrass, Large: 20
Pigweed [11]; 125 g ai/ha
  Pigweed plant response rating (0 to 100 scale): 20
Pigweed [11]; [21]
  Pigweed plant response rating: 90
Heteranthera limosa
  Plant response rating, Ducksalad: 0
rice
  Plant response rating, Rice: 0
Corn [12]; 125 g ai/ha
  Corn plant response rating (0 to 100 scale): 0
Corn [12]; [21]
  Corn plant response rating: 0
Velvetleaf [13]; 125 g ai/ha
  Velvetleaf plant response rating (0 to 100 scale): 0
Velvetleaf [13]; [21]
  Velvetleaf plant response rating: 10
Morningglory [14]; 125 g ai/ha
  Morningglory plant response rating (0 to 100 scale): 0
Morningglory [14]; [21]
  Morningglory plant response rating: 0
Pigweed [15]; [22]
  Plant response rating, Pigweed: 90
Pigweed [15]; [21]
  Plant response rating, Pigweed: 100
Barnyardgrass [16]
  Plant response rating, Barnyardgrass: 0
Velvetleaf [17]; [22]
  Plant response rating, Velvetleaf: 20
Velvetleaf [17]; [21]
  Plant response rating, Velvetleaf: 30

## O=Cc1cccc(Oc2ncc(Br)cn2)c1-n1cc(Cl)cn1 [Compound 206]
Wheat [1]; 125 g ai/ha
  Wheat plant response rating (0 to 100 scale): 0
Wheat [1]; [21]
  Wheat plant response rating: 0
Morningglory [2]; [18]
  Morningglory plant response rating: 0
Morningglory [2]; [21]
  Plant response rating, Morningglory: 0
Giant foxtail [3]; [18]
  Foxtail, Giant plant response rating: 0
Giant foxtail [3]; [21]
  Plant response rating, Foxtail, Giant: 0
Giant foxtail [4]; 125 g ai/ha
  Foxtail, Giant plant response rating (0 to 100 scale): 0
Giant foxtail [4]; [21]
  Foxtail, Giant plant response rating: 0
Barnyardgrass [5]; [18]
  Barnyardgrass plant response rating: 0
Barnyardgrass [5]; [21]
  Plant response rating, Barnyardgrass: 0
Large (Lg) crabgrass [6]; 125 g ai/ha
  Crabgrass, Large plant response rating (0 to 100 scale): 0
Large (Lg) crabgrass [6]; [21]
  Crabgrass, Large plant response rating: 0
Corn [7]; [18]
  Corn plant response rating: 0
Corn [7]; [21]
  Plant response rating, Corn: 0
Barnyardgrass [8]; 125 g ai/ha
  Barnyardgrass plant response rating (0 to 100 scale, 0 is no effect, 100 is complete control): 0
Barnyardgrass [8]; [21]
  Barnyardgrass plant response rating: 0
sedge, umbrella
  Plant response rating, Sedge, Umbrella: 0
Wheat [9]; [18]
  Wheat plant response rating: 0
Wheat [9]; [21]
  Plant response rating, Wheat: 0
Large (Lg) crabgrass [10]; [18]
  Crabgrass, Large plant response rating: 0
Large (Lg) crabgrass [10]; [21]
  Plant response rating, Crabgrass, Large: 0
Pigweed [11]; 125 g ai/ha
  Pigweed plant response rating (0 to 100 scale): 0
Pigweed [11]; [21]
  Pigweed plant response rating: 50
Heteranthera limosa
  Plant response rating, Ducksalad: 0
rice
  Plant response rating, Rice: 0
Corn [12]; 125 g ai/ha
  Corn plant response rating (0 to 100 scale): 0
Corn [12]; [21]
  Corn plant response rating: 0
Velvetleaf [13]; 125 g ai/ha
  Velvetleaf plant response rating (0 to 100 scale): 0
Velvetleaf [13]; [21]
  Velvetleaf plant response rating: 0
Morningglory [14]; 125 g ai/ha
  Morningglory plant response rating (0 to 100 scale): 0
Morningglory [14]; [21]
  Morningglory plant response rating: 0
Pigweed [15]; [18]
  Pigweed plant response rating: 0
Pigweed [15]; [21]
  Plant response rating, Pigweed: 0
Barnyardgrass [16]
  Plant response rating, Barnyardgrass: 0
Velvetleaf [17]; [18]
  Velvetleaf plant response rating: 10
Velvetleaf [17]; [21]
  Plant response rating, Velvetleaf: 20
